Tests used:
Type in all cases: biochemical
[1] = target: Zea mays EPSPS variant 868-H6 (A2R, A4W, A72Q, K84R, L98C, G102A, I208L, T279A, E302S, T361S, E391G, D402G, A416G, V438R, T441Q), SEQ ID NO:5 (Zea mays, UniProt O24566, A1R/A3W/A415G/A71Q/D401G/E301S/E390G/G101A/I207L/K83R/L97C/T278A/T360S/T440Q/V437R); test: EPSPS substrate saturation kinetics, 868-H6
Experimental: (§1) EPSPS activity was determined by quantifying the phosphate generated from the EPSPS reaction. Release of inorganic phosphate was coupled to reaction with 2-amino-6-mercapto-7-methylpurine ribonucleoside, catalyzed by purine-nucleoside phosphorylase (M R Webb, Proc. Natl. Acad. Sci. 89:4884-4887, 1992). The absorbance change that occurs was monitored at 360 nm, where the extinction is 11,200 M^−1 cm^−1, with a Spectramax plate reader (Molecular Devices). To determine kinetic parameters, the varied substrate was present at seven concentrations (the eighth being the blank, containing no substrate) ranging from 4 to 400 uM and the unvaried substrate present at saturation. […] Reactions were monitored with a Spectramax plate reader. […] KI was then calculated from the following form of the Michaelis-Menten equation for competitive inhibition: KI=KM[I]/(KM app−KM) KM approximates the dissociation constant of the enzyme-substrate complex while kcat is the rate of conversion of substrate to product when the substrate concentration is saturating. kcat/KM is a widely accepted parameter for catalytic efficiency when substrate concentration is low (˜KM). […] The parameter kcat/KM×KI is used to quantify both catalytic efficiency and insensitivity and thus the overall fitness of the enzyme. […]

[2] = target: T1, Zea mays EPSPS variant Zm-P107S (Zea mays, UniProt O24566, P106S); test: Rapid two-rate method for (kcat/KM)*KI, Zm-P107S
T1 construct: native maize plus P107S; E. coli BL21(DE3), Ni-NTA purified
T1 sequence (O24566 with tags, fused parts or gaps P106S): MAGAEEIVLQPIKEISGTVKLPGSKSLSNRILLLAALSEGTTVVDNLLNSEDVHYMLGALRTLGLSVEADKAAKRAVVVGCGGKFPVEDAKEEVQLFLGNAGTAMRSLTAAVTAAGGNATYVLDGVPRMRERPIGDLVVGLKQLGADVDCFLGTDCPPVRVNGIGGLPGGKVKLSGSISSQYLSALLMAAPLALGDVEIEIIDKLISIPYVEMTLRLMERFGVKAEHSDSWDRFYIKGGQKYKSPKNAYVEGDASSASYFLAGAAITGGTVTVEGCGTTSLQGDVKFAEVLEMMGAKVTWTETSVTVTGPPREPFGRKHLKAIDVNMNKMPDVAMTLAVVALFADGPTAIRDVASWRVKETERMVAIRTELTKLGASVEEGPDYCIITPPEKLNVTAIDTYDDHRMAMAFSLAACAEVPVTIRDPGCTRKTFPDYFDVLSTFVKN
Text: There are several practical considerations for accurately estimating (kcat/KM)*KI with the rapid method. […] 2) The inhibitor concentration must be adjusted so as to obtain a degree of inhibition that minimally amplifies the error in the term v0-vi in Equation 3. If inhibition is too little, v0-vi will be small, and the error in the multiplier vi×v0/(v0-vi) will be large. […] 3) Substrate concentration should be set at the approximate KM of the parental variant(s), subject to the sensitivity of the assay. High substrate concentration obscures sensitivity to the inhibitor and reduces stringency for capturing improvements in KM. Depending on the necessity for speed, there exists opportunity for customizing enzyme and inhibitor concentrations. […] The rapid method was repeated for those and obtained data that correlated better with data obtained by substrate saturation analysis. For screening purposes however, that correlation step is not necessary. Conditions can be set so that variants with a pre-determined minimal fitness level are accurately quantified.
In Table 15, parameters above the heavy line for the rapid method were obtained under standard conditions. For variants shown below the heavy line, the rapid analysis was repeated with enzyme or glyphosate concentrations adjusted as needed to generate sufficient signal within the limits for linear initial rates.

[3] = target: Zea mays EPSPS variant WT-FS-B (103I 107S 278G 338S) (Zea mays, UniProt O24566, A337S/P106S/T102I/T277G); test: EPSPS substrate saturation kinetics, WT-FS-B
Chain of Zea mays EPSPS variant WT-FS-B (103I 107S 278G 338S) (O24566 entry or part of it T102I/P106S/T277G/A337S): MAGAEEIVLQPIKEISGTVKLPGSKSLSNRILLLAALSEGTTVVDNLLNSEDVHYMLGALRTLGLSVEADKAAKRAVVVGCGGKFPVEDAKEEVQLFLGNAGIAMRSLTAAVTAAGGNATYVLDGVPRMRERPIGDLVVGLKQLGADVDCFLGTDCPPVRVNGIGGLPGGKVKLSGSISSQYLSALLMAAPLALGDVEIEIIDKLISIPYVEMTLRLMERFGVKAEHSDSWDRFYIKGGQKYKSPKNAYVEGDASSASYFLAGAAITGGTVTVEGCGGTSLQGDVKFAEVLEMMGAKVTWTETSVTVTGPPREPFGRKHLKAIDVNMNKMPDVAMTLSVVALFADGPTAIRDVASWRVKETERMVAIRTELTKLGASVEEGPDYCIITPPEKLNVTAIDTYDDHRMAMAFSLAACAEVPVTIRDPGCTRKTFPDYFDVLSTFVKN
Experimental: as §1

[4] = PEP as substrate, glyphosate as inhibitor

In the case of `O=C(O)CNCP(=O)(O)O` [glyphosate, N-phosphonomethylglycine], the Ki [1] is reported as 629 µM, the “(kcat/KM)*KI” value [1, 4] is reported as 10070 and the “(kcat/KM)*KI” value ([2]; rapid method repeated, [E] 0.007 uM, [Gly] 5 uM) is reported as 40. For the same compound, the “(kcat/KM)*KI” value ([2]; rapid method, [E] 0.07 uM, [Gly] 1000 uM) was 72, the Ki [3] was 552 µM and the “(kcat/KM)*KI” value [3, 4] was 1971.

Source: patent publication US11549123B2, “Plant EPSP synthases and methods of use” (PIONEER HI-BRED INTERNATIONAL, INC., priority 2015, dated 2023)
